Assay results from patent publication US20190308988A1, “OPIOID RECEPTOR ANTAGONIST PRODRUGS” (Nirsum Laboratories, Inc., priority 2017, published 2019).
In brackets after ≈: the same amount, converted by molar mass. Read-outs that look alike come from different tables or passages of the source.

Assays:
KOR = target: T1, KOR (Homo sapiens, UniProt P41145); test: Opioid receptor binding assay, KOR ([3H]Diprenorphine)
T1 construct: expressed in transfected cells
Method: (§1) Receptor binding assays were performed to assess the ability of compounds to inhibit binding to radiolabeled ligand.
(§2) The stable cell lines were established and prepared cell membrane obtained using these cell lines.
(§3) 1) Transfer 1 μl of specified concentration compound to assay plate according to the plate map for nonspecific binding. Transfer 1 μl of DMSO to assay plate according to plate map for total binding. 2) Follow the plate map. Dispense 99 μl of membrane stocks into the plate. 3) Add 100 μl of radio ligand. 4) Seal the plates. Incubate at RT for 1 hour. 5) Soak the Unifilter-96 GF/C filter plates with 50 μl of 0.3% PEI per well for at least 0.5 hour at room temperature. 6) When binding assays are completed, filter the reaction mixture through GF/C plates using Perkin Elmer Filtermate Harvester, and then wash each plate for 4 times with cold wash buffer. 7) Dry the filter plates for 1 hour at 50 degrees. 8) After drying, seal the bottom of the filter plate wells using Perkin Elmer Unifilter-96 backing seal tape. Add 50 μl of Perkin Elmer Microscint 20 cocktail. Seal top of filter plates with Perkin Elmer TopSeal-A sealing film. 9) Count ^3H trapped on filter using Perkin Elmer MicroBeta2 Reader second day. 10) Analyze the data with GraphPad Prism 5. Calculate the “Inhibition [% Control]” using the equation: % Inh=(1−Background subtracted Assay value/Background subtracted HC value)*100.

[1] = Dog pharmacokinetic studies, deep intramuscular administration; format: in vivo, Beagle dogs; conditions: for AUC(0-inf) / half-life: Beagle, dog, plasma, im, Cottonseed + 1% Benzyl Alcohol; for AUC(0-inf): read-out: AUC0-inf (ng · h/mL) prodrug; for half-life: read-out: Half-life t1/2 (hour) prodrug (converted)
Method: The purpose of this study is to determine the pharmacokinetics of test compounds in plasma, following deep intramuscular administration to Beagle dogs (n=3, unless otherwise specified).
The dose formulation (concentration—400 mg base equivalents/ml in sesame oil+1% benzyl alcohol, unless otherwise specified) was administered via deep intramuscularly (unless otherwise specified). The injection vehicle was also dosed via deep intramuscular route (unless otherwise specified) on contralateral site of each animal at study initiation. The animals were sedated with Propofol at 6 mg/kg via IV administration. Following sedation hair was carefully removed from around the injection site and the area gently cleaned. Care will be taken to avoid irritating skin during shaving and cleaning the injection site. Then dogs will be dosed with deep IM administration. At least 2.5 cm depth from the surface into the central aspect of the quadriceps or biceps femoris muscle, by angling the needle toward the femur. If the needle hits the femur, simply draws back slightly and then inject. The dose volume will be determined by the animals' body weight collected on the morning of dosing day. For repeated administration, the injection sites may be rotated to minimize tissue injury.
Blood samples were collected from a peripheral vessel from restrained, non-sedated animals per sampling time point.
Approximately 0.8 mL blood will be collected at each time point.
Each collected blood sample was centrifuged for 4 minutes at 4° C. and 10000 rpm for plasma collection. Plasma was collected and transferred into a pre-labeled PP tube in dry ice at each time point and precipitated immediately using ACN at a ratio of 1:4 (plasma:ACN).
LC-MS/MS methods for the quantitative determination of test compound in biological matrix were developed. […] The sample analysis was performed concurrently with a set of calibration standards and two sets of QC samples using the LC-MS/MS method.
Plasma concentration versus time data was analyzed by non-compartmental approaches using the Phoenix WinNonlin 6.3 software program. Cmax, Tmax, T1/2, AUC(0-t), AUC(0-inf), MRT(0-t), MRT(0-inf) and graphs of plasma concentration versus time profile were prepared.

MOR = target: T2, MOR (Homo sapiens, UniProt P35372); test: Opioid receptor binding assay, MOR ([3H]DAMGO)
T2 construct: expressed in transfected cells
T2 sequence (P35372 whole entry): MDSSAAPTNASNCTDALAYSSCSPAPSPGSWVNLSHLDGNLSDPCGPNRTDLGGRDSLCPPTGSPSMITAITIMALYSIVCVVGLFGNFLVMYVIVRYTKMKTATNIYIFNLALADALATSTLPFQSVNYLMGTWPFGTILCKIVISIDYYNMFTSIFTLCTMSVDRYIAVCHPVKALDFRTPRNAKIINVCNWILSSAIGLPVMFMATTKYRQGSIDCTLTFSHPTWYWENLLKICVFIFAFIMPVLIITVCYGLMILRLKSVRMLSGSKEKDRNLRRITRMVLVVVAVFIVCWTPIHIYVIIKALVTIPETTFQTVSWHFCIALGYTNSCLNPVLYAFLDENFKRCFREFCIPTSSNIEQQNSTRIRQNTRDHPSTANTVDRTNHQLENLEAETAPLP
Method: as §1, §2, §3

[2] = Solubility determination in oil (Table 10); conditions: thermodynamic from solid; for solubility at 24 h: 25 °C, oil or lipid, Heating Temp. 60 °C, Obs. Temp. 25 °C; for solubility thermodynamic: 40 °C, water, Equilibrium solubility: Water, Heating Temp. 40 °C, Obs. Temp. 40 °C
Method: A known amount of test substance (˜40 mg) was weighed into the vial, 100 μL of oil was added and heated to 60° C. and then system was slurried to reach equilibrium. […] Extra oil was added into the vial once compound precipitated out and then the system was re-equilibrated at 1000 rpm at room temperature (25° C.). Final concentration was determined by HPLC method as described below in Table 6a and 6b.

DOR = target: T3, DOR (Homo sapiens, UniProt P41143); test: Opioid receptor binding assay, DOR ([3H]-DADLE)
T3 construct: expressed in transfected cells
T3 sequence (P41143 whole entry): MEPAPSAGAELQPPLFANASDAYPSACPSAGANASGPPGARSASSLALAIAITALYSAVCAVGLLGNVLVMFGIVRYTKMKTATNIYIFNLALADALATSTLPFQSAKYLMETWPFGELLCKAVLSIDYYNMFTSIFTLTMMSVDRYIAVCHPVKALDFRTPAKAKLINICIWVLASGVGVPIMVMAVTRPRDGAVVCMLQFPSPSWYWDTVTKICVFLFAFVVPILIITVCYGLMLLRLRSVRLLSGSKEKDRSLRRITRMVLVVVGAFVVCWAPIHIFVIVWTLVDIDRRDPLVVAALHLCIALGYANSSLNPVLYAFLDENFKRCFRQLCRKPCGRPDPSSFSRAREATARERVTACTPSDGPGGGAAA
Method: as §1, §2, §3

[3] = IM 96 mg/kg, Cottonseed oil + 1% Benzyl Alcohol
[4] = Approximate Solubility in Excipient: Cottonseed oil
[5] = Approximate Solubility in Excipient: Sesame oil

T1 sequence (P41145 whole entry): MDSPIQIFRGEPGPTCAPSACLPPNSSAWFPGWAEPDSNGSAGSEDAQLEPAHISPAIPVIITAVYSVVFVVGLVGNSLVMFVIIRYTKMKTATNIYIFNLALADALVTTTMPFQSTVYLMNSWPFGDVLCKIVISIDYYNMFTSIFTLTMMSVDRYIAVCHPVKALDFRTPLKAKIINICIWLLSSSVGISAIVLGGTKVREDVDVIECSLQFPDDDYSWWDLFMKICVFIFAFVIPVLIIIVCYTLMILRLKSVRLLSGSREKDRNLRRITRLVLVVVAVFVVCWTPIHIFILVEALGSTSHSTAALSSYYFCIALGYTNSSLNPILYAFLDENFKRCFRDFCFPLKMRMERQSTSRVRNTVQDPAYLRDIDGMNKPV

Q: Which results are given for `C=C1CC[C@@]2(O)C3Cc4ccc(OCOC(=O)CCCCCCCCCCCCC)c5c4[C@@]2(CCN3CC2CC2)[C@H]1O5` [Compound 45, (((4aS,7aS,12bS)-3-(cyclopropylmethyl)-4a-hydroxy-7-methylene-2,3,4,4a,5,6,7,7a-octahydro-1H-4,12-methanobenzofuro[3,2-e]isoquinolin-9-yl)oxy)methyl tetradecanoate]?
A: IC50 (KOR): 5.5 nM; AUC(0-inf) ([1]; 30 mg/kg, IM 30 mg/kg): 100 ng·h/mL; half-life ([1]; 30 mg/kg, IM 30 mg/kg): 151 h; AUC(0-inf) ([1]; 48 mg/kg, IM 48 mg/kg): 267 ng·h/mL; half-life ([1]; 48 mg/kg, IM 48 mg/kg): 171 h; AUC0-inf (ng · h/mL) prodrug [1, 3]: None; Half-life t1/2 (hour) prodrug [1, 3]: None; IC50 (MOR): 2 nM; solubility at 24 h [2, 4]: > 402 mg/mL; solubility at 24 h [2, 5]: 267 to 288 mg/mL (≈ 460 to 497 mM); solubility thermodynamic [2]: < 0.001 mg/mL; IC50 (DOR): 68.4 nM

Q: For `C=C1CC[C@@]2(O)C3Cc4ccc(OCOC(=O)CCCCCCCCCCCCCCC)c5c4[C@@]2(CCN3CC2CC2)[C@H]1O5` [Compound 46, (((4aS,7aS,12bS)-3-(cyclopropylmethyl)-4a-hydroxy-7-methylene-2,3,4,4a,5,6,7,7a-octahydro-1H-4,12-methanobenzofuro[3,2-e]isoquinolin-9-yl)oxy)methyl hexadecanoate], which IC50 (KOR) is on record?
A: 33.9 nM

Q: What about the IC50 (MOR) of the same molecule?
A: 4.52 nM

Q: And the solubility at 24 h [2, 4]?
A: > 396 mg/mL

Q: What about the solubility at 24 h [2, 5] of the same molecule?
A: 202 to 269 mg/mL (≈ 332 to 443 mM)

Q: And the solubility thermodynamic [2]?
A: < 0.001 mg/mL

Q: What about the IC50 (DOR) of the same molecule?
A: 1360 nM
